The source made the active and inactive calls.
Experiments:
[1] = target: ATP-dependent molecular chaperone HSP82 (Candida albicans (strain WO-1) (Yeast), UniProt C4YTQ8); assay: loss of DOC-induced GRE-beta-galactosidase reporter signal, dose response, Hsp90 inhibitor project, S. cerevisiae, luminescence (AID 2400); assay type: functional, cell-based;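 also: beta-galactosidase luminescence from glucocorticoid response element reporter as proxy for Hsp90 function; inhibitor potency where signal loss means Hsp90 inhibition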
Chain of ATP-dependent molecular chaperone HSP82 (C4YTQ8 whole entry): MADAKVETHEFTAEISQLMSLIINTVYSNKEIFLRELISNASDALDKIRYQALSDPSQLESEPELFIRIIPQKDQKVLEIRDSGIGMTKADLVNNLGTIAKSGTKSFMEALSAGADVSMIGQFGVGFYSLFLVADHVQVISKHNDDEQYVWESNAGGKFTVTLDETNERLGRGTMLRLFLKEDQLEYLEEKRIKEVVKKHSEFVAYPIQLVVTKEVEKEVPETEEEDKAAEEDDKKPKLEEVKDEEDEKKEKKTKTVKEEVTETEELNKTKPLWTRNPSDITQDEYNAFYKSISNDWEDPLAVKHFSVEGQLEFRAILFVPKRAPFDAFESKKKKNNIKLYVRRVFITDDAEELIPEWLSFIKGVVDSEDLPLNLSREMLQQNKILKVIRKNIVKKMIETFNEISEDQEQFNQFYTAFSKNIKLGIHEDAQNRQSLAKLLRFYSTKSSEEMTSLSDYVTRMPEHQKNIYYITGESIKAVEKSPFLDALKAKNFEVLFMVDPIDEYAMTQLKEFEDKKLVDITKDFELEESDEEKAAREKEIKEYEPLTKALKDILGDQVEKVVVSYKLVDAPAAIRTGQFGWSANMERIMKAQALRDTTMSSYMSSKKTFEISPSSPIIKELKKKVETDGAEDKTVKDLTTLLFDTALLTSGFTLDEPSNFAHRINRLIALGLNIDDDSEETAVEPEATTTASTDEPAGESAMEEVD

[2] = C. albicans growth with fluconazole, confirmation, fluorescence, retest (AID 2467); assay type: functional, cell-based
Streptokinase A = target: T1, Streptokinase A (Streptococcus pyogenes serotype M1, UniProt P10520); assay: S. pyogenes streptokinase expression inhibitors, potency, dose response, plasminogen activation absorbance, OD405 (AID 1914); assay type: functional, Streptococcus pyogenes M1 GAS;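 also: secreted streptokinase activity via plasminogen activation per viability signal from cell pellet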
T1 sequence (P10520 whole entry): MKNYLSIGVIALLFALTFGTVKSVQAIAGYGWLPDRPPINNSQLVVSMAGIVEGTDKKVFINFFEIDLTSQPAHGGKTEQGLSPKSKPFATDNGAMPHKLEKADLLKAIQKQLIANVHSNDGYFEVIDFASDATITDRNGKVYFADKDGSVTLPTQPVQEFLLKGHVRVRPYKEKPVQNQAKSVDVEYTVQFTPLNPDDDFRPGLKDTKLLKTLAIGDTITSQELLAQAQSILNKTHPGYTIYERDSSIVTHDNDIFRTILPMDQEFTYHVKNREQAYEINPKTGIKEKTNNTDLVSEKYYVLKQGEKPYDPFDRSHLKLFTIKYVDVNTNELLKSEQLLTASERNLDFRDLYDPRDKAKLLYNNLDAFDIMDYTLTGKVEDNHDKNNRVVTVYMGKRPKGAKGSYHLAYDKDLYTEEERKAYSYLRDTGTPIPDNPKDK

[3] = NIH-3T3 fibroblast cytotoxicity, dose response, cytotoxicity control, cell-based, fluorescence, Alamar Blue, secondary assay (AID 2327); assay type: functional;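 also: NIH-3T3 mouse fibroblasts cultured with fluconazole at 8 µg/mL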
[4] = test system: Streptococcus sp. 'group A'; assay: growth inhibition of control SK(-) GAS strain, dose response, counter-screen for streptokinase expression inhibitor project, luminescence, kanamycin, BacTiterGlo, confirmation (AID 1900); assay type: functional, organism-based
cells = assay type: functional
Streptococcus = assay: Group A Streptococcus viability loss, dose response, counter-screen for streptokinase expression inhibitor project, luminescence, BacTiterGlo (AID 1915); assay type: functional, organism-based;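 also: potency for reduction of bacterial viability or growth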
[5] = THP-1 cell cytotoxicity, dose response, cytotoxicity control for non-replicating M. tuberculosis project (AID 489025); assay type: functional
[6] = Vero E6 cell cytotoxicity, dose response, cytotoxicity control for non-replicating M. tuberculosis project, secondary assay (AID 492998); assay type: functional, VeroE6; settings: Vero C1008
[7] = target: T2, Serine/threonine-protein phosphatase (Candida dubliniensis (strain CD36 / CBS 7987 / NCPF 3949 / NRRLY-17841) (Yeast), UniProt B9W6M3); assay: calcineurin pathway inhibitors in yeast reporter, dose response, S. cerevisiae, CDRE-lacZ, luminescence, secondary (AID 2388); assay type: functional, cell-based;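 also: yeast reporter cells carrying a calcineurin-responsive lacZ construct stimulated with calcium chloride; luminescent beta-galactosidase reporter signal in whole cells rather than isolated phosphatase activity; potency for inhibition where a drop in reporter signal means calcineurin blockade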
T2 sequence (B9W6M3 whole entry): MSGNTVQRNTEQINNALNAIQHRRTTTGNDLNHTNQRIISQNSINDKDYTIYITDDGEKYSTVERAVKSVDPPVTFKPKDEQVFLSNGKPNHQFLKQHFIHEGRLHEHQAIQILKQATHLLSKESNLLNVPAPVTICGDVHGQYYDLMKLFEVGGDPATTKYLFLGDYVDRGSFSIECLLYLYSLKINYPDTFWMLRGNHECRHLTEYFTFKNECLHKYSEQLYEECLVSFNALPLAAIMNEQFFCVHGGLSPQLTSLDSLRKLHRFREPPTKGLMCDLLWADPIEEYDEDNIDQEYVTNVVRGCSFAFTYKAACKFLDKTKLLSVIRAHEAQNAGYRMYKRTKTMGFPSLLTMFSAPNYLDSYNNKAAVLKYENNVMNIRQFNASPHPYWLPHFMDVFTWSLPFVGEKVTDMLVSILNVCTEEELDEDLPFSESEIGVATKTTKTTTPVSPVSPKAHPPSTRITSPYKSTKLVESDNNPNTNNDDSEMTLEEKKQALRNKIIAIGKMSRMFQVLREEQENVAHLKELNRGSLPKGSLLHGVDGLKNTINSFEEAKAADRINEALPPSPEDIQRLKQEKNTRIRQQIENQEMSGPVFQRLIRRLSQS

[8] = target: T3, Nuclear receptor subfamily 0 group B member 1 (Homo sapiens, UniProt P51843); assay: Luminescence-based cell-based high throughput dose response assay for inhibitors of the orphan nuclear receptor subfamily 0, group B, member 1 (DAX1; NR0B1). [Related pubchem assays (depositor defined):AID504766, AID504790]; assay type: functional
T3 sequence (P51843 whole entry): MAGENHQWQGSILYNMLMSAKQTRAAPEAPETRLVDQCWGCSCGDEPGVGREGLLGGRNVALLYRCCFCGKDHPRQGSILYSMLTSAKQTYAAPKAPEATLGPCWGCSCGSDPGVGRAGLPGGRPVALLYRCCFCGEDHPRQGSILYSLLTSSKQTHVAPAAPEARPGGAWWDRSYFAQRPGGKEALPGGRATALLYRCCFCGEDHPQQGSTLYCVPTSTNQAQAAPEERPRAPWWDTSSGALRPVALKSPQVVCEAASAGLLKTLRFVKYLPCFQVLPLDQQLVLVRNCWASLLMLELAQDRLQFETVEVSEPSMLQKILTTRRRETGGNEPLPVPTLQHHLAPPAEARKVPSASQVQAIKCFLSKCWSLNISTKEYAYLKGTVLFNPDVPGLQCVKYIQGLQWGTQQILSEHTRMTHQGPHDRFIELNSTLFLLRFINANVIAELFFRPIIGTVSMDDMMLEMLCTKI

HEK293 = assay: cells; assay type: functional, cell-based; settings: Homo sapiens
[9] = target: FAD-linked sulfhydryl oxidase ALR (Homo sapiens, UniProt P55789); assay: inhibitors of human ALR sulfhydryl oxidase, dose response, biochemical, H2O2 detection, luminescence, cherry-pick (AID 493248)
Chain of FAD-linked sulfhydryl oxidase ALR (P55789 whole entry): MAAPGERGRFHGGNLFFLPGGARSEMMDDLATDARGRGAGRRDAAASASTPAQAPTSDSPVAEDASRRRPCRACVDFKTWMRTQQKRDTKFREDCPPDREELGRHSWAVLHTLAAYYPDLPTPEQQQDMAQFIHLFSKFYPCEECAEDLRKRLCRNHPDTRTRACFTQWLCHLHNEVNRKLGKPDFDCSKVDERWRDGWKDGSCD

[10] = target: Delta-type opioid receptor (Homo sapiens, UniProt P41143); assay: Counterscreen for agonists of heterodimerization of the mu 1 (OPRM1) and delta 1 (OPRD1) opioid receptors: Luminescence-based cell-based high throughput dose response assay to identify agonists of OPRD1 homodimerization. [Related pubchem assays (depositor defined):AID504326, AID504355, AID504692, AID504904, AID504905]; assay type: functional
Chain of Delta-type opioid receptor (P41143 whole entry): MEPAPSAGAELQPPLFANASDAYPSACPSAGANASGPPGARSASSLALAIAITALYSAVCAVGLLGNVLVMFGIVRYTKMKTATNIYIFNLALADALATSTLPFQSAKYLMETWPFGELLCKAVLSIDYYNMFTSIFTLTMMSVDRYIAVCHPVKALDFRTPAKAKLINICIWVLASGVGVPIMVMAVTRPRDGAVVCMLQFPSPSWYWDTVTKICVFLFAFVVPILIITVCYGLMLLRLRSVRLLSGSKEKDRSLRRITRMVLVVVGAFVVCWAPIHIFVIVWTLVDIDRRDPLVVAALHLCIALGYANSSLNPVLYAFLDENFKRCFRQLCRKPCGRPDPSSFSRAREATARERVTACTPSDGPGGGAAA

[11] = target: 5-hydroxytryptamine receptor 5A (Homo sapiens, UniProt P47898); assay: Counterscreen for agonists of OPRM1-OPRD1 heterodimerization: luminescence-based cell-based high throughput dose response assay to identify agonists of 5-hydroxytryptamine (serotonin) 5A receptor (HTR5A). [Related pubchem assays (depositor defined):AID504326, AID504355, AID504692, AID504904, AID504905]; assay type: functional
Chain of 5-hydroxytryptamine receptor 5A (P47898 whole entry): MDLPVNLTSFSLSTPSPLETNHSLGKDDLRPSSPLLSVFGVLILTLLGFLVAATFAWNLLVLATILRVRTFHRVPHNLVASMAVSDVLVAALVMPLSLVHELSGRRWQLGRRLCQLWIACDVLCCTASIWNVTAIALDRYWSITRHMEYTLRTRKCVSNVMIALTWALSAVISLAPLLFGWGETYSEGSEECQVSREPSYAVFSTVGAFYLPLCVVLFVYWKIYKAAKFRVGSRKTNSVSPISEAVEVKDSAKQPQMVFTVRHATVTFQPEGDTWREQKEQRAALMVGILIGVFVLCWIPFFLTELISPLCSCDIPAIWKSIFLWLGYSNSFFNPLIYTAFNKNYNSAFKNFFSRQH

Mu-type opioid receptor = Mu-type opioid receptor (Homo sapiens, UniProt P35372); assay: Counterscreen for agonists of heterodimerization of the mu 1 (OPRM1) and delta 1 (OPRD1) opioid receptors: Luminescence-based cell-based high throughput dose response assay to identify agonists of OPRM1 homodimerization.; assay type: functional;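 also: U2OS cells expressing OPRM1 and beta-arrestin as split beta-galactosidase partners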
Chain of Mu-type opioid receptor (P35372 whole entry): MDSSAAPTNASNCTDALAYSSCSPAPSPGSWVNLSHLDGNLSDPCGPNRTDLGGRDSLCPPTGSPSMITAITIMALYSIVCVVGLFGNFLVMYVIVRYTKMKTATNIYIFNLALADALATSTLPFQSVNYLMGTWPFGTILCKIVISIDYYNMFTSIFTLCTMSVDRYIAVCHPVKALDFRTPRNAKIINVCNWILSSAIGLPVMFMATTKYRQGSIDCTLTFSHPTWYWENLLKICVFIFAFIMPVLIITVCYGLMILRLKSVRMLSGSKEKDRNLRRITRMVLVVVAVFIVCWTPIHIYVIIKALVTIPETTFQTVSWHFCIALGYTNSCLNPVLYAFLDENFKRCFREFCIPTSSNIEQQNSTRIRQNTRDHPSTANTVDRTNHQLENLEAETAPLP

A-375 = assay: MITF: Counter assay: A375 proliferation Measured in Cell-Based System Using Plate Reader - 2084-03_Inhibitor_Dose_DryPowder_Activity. [Related pubchem assays (depositor defined):AID488944]; assay type: functional; settings: Homo sapiens
[12] = growth suppression of beta-catenin-knockout colon cells, dose response, cell-based, HCT116, human colon tumor (AID 1045); assay type: functional;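 also: HCT116 colon tumor cells with beta catenin knocked out; cells exposed to compound for 60 hours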
[13] = insulin promoter down-regulators in MIN6 cells, imaging, high-content screening, mouse beta cells (AID 1628); assay type: functional
[14] = cytotoxicity in MIN6 insulinoma cells, dose response, cytotoxicity control, cell-based, mouse insulinoma (AID 2122); assay type: functional;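 also: confirmatory high-throughput counterscreen run to flag cytotoxic compounds; mouse MIN-6 beta cells carrying an insulin promoter eGFP reporter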
[15] = inhibitors of PGC1a acetylation in cells, dose response, cell-based, cherry-picked samples (AID 720514); assay type: functional;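 also: potency may reflect raised or lowered acetylation signal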
[16] = growth suppression of PTEN-null colon cells, dose response, cell-based, HCT116 PTEN knockout (AID 1047); assay type: functional;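 also: HCT116 colon tumor cells with PTEN knocked out; cells exposed to compound for 60 hours before readout; potency for loss of cell viability measured by luminescence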
[17] = Vero cell cytotoxicity, dose response, cytotoxicity control for Vif-APOBEC3G degradation inhibitor project, Vero cells (AID 1117358); assay type: functional; settings: Human immunodeficiency virus 1, Vero
[18] = target: T4, Microphthalmia-associated transcription factor (Homo sapiens, UniProt O75030); assay: TRPM1 promoter luciferase signal decrease, dose response, MITF inhibitor project, cell-based, SK-MEL-5, cherry-picked, set 3 (AID 493073); assay type: functional
T4 sequence (O75030 whole entry): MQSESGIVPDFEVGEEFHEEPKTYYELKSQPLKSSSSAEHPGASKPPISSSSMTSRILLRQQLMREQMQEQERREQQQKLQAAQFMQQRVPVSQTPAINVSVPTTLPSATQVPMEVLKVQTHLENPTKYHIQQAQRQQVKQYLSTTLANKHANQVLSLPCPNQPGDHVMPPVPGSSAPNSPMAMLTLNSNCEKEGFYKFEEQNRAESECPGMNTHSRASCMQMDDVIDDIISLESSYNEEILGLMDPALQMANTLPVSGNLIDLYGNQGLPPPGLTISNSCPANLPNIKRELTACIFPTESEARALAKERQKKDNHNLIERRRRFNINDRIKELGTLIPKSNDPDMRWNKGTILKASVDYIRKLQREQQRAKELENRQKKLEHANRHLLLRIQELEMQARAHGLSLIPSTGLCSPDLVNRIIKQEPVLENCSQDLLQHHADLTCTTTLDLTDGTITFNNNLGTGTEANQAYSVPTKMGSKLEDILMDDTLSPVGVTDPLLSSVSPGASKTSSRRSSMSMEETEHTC

[19] = microbe, parasite or virus in culture; assay type: functional; settings: Mycobacterium tuberculosis
Genome polyprotein = Genome polyprotein (dengue virus type 2, UniProt P29990); assay: Dengue-2 NS5 methyltransferase inhibitors, primary screen, biochemical, confirmation dose response (AID 588689); assay type: functional
Chain of Genome polyprotein (P29990 2492-3391 limits assumed): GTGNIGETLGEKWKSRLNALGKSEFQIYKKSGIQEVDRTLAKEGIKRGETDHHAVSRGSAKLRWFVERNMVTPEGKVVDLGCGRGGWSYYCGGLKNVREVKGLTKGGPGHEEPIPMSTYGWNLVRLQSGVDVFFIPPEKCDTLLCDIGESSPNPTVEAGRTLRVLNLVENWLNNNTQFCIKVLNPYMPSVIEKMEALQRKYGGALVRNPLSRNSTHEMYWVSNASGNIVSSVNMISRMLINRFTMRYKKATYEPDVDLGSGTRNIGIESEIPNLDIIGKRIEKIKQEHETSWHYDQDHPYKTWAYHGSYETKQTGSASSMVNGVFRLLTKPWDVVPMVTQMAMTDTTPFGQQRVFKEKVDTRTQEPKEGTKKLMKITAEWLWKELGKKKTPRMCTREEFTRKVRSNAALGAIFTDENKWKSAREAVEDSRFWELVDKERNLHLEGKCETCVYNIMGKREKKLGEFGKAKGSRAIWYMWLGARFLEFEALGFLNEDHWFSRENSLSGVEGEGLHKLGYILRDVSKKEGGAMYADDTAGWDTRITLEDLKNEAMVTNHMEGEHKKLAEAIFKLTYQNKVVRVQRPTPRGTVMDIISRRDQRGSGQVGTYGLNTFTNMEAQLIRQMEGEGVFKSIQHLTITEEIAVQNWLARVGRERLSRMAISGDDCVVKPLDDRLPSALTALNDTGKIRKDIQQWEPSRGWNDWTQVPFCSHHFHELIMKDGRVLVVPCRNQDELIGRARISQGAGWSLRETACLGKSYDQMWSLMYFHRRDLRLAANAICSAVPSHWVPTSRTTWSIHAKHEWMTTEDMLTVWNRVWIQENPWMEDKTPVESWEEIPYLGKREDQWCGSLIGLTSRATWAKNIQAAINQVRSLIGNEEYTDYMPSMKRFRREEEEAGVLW

[20] = target: T5, Corticotropin-releasing factor receptor 2/Corticotropin-releasing factor-binding protein (Homo sapiens, UniProt P24387+Q13324); assay: activators of CRF receptor 2 with binding protein – uHTS hits, confirmation (AID 602473); assay type: functional; settings: read-out: EC50_Mean
T5 sequence (Q13324 whole entry): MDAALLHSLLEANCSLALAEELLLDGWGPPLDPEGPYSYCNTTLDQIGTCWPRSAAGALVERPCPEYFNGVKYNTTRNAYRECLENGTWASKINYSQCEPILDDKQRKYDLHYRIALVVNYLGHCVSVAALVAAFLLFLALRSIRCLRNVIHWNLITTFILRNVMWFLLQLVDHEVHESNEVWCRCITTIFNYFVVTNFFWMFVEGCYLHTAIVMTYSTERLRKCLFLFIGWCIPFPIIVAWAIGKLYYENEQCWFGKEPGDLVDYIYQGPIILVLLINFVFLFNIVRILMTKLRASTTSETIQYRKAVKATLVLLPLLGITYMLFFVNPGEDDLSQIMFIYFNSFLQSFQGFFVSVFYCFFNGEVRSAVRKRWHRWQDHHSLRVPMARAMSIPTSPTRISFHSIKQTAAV
T5 sequence (P24387 whole entry): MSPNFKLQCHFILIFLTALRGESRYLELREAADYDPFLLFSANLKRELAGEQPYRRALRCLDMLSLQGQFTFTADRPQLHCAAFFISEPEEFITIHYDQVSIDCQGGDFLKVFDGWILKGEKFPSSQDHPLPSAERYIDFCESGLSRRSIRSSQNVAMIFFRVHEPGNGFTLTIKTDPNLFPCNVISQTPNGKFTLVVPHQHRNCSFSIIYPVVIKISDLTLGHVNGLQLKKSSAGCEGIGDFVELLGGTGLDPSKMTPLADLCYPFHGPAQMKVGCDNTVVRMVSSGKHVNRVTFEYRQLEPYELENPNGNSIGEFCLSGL

[21] = target: T5, Corticotropin-releasing factor receptor 2/Corticotropin-releasing factor-binding protein; assay: Dose Response confirmation of uHTS hits for small molecule antagonists of the CRF-binding protein and CRF-R2 receptor complex.; assay type: functional; settings: read-out: IC50_Mean

CCCn1nnnc1NC(=O)c1ccc2ccccc2c1
active: EC50 [1] 82.2 µM | EC50 [2] 0.505 µM | EC50 [3] 121 µM | EC50 [4] 1.59 µM | IC50 (cells) 0.9 µM | CC50 [5] 39.5 µM | CC50 [6] > 20 µM
> 150 µM (not active): EC50 (Streptokinase A) | EC50 (Streptococcus)
inactive: EC50 [7] > 180 µM

COc1ccc(Nc2[nH]nc(N)c2C(N)=O)cc1
active: AC50 [9] 2.71 µM
inactive: IC50 [8] > 67.5 µM | IC50 (HEK293) > 67.5 µM

OCC1(CCc2ccccc2)CCN(Cc2cc(F)ccc2-n2cccn2)CC1
inactive: EC50 [10] > 92.5 µM | EC50 [11] > 92.5 µM | EC50 (Mu-type opioid receptor) > 92.5 µM

COc1ccc(-c2cc(-c3ccccc3)c(C#N)c([S+](C)[O-])n2)cc1 (stereo unspecified)
active: AC50 (A-375) 20.2 µM | EC50 [12] 2.12 µM | IC50 [13] 2.05 µM | IC50 [14] 2.76 µM | AC50 [15] 4.89 µM | EC50 [16] 3.33 µM | CC50 [17] 31.4 µM | AC50 [18] 11.8 µM | CC50 [19] 23 µM

COc1ccccc1/C=C1\SC(=S)N(NS(=O)(=O)c2ccccc2)C1=O
inconclusive: EC50 [3] > 150 µM
active: EC50 [1] 18.2 µM | EC50 [2] 0.94 µM | IC50 (Genome polyprotein) 36.2 µM
inactive: EC50 [7] > 180 µM

C/C(CC(=O)Nc1ccc(Cl)cc1C(F)(F)F)=N\NC(=O)c1cccs1
inactive: IC50 [8] > 67.6 µM | IC50 (HEK293) > 67.6 µM

Cc1nc(-c2ccncc2)nc(NCCNc2ccc(C(F)(F)F)cn2)c1Cl
inactive: IC50 [8] > 67.5 µM | IC50 (HEK293) > 67.5 µM | EC50 [20] > 53 µM | IC50 [21] > 47.1 µM

— ChEMBL document CHEMBL1201862, “PubChem BioAssay data set” (2004)
